The values that follow come from US11066692B2, “Real-time monitoring” (PROMEGA CORPORATION, priority 2012, dated 2021).

A short description of series [1]: Stability of pro-furimazine substrate PBI-4600 in cell culture media (HPLC purity). The series is classed as physicochemical. The note with it: 50 μM in RPMI cell culture media, room temperature or 37° C., up to 190 hours. Here is the method: PBI-4600 (50 μM) was incubated in RPMI cell culture media at room temperature (RT) or 37° C. for increasing time points, up to 190 hours. HPLC analysis was performed to determine the purity of PBI-4600 at various time points.

The next series has as its system Cardiomyocyte cells. The series can be described thus: Real-time measuring of drug induced changes in viability. Particulars: 200 μg/ml final, after multiple days of cell growth; 40 uM PBI-4600, 100 ng/ml NANOLUC. The class given is cell-based. How it is done:
Cardiomyocyte cells were plated and grown in media containing 40 uM PBI-4600 pro-substrate and 100 ng/ml NANOLUC luciferase protein sensor in a 37° C., 5% CO2 incubator. At various time points, luminescence was monitored on a Tecan M1000 plate reader. After multiple days of cell growth, digitonin was added to a final concentration of 200 μg/ml. Luminescence was read continually, starting immediately after digitonin addition.

Series [2] relates to reactive oxygen species (ROS) in A549 cells. In words: Real-time monitoring of reactive oxygen species (ROS). The series is classed as cell-based. The note with it: 200 μM, 10, 25 or 50 μM PBI-4759, 40 ng/ml NANOLUC. Here is the method: A549 cells were plated at 1,000 cells/well into wells of a 384-well plate and incubated overnight. Then, either 10, 25, or 50 μM of a pro-furimazine hydrogen peroxide substrate, PBI-4759, and 40 ng/ml NANOLUC luciferase protein sensor were added to the cells. Menadione (200 μM), a known ROS inducer, or a vehicle control (DMSO) was added to the cells. Luminescence was monitored over time using a Tecan M1000 plate reader.

For series [3], the system named is caspase activation in A549 cells. The series can be described thus: Real-time monitoring of caspase activation. The class given is cell-based. Particulars: 4 μM final concentration, 50 μM PBI-3741, 40 ng/ml NANOLUC. How it is done: A549 cells were plated at 1,000 cells/well into wells of a 384-well assay plate. 50 μM PBI-3741 (a pro-furimazine caspase substrate) and 40 ng/ml NANOLUC luciferase enzyme were added to the cells. To induce apoptosis, staurosporine was added to the cells at a 4 μM final concentration. The induction of apoptosis and activation of caspase were measured in real-time.

A further series deals with A549 cells. In words: Measuring cell death in real-time. Particulars: 1% final concentration, A549 cells 1,000 cells/well; 40 μM PBI-4600, 100 ng/ml NANOLUC. The class given is cell-based. Here is the method: A549 cells were plated into wells of a 384-well plate at 1,000 cells/well in the presence of 40 μM PBI-4600 pro-substrate and 100 ng/ml NANOLUC luciferase protein sensor. The cells were incubated and the luminescence signal was monitored at various time points on a Tecan M1000 plate reader. Triton X-100 was then added to a final concentration of 1%, and compared to control cells that received media only. Luminescence was continually monitored.

Series [4] in a line: Protein sensor stability in cell culture. Particulars: 40 ng/ml in A549 cell culture with 50 μM PBI-4600; signal compared with freshly added sensor. The series is classed as physicochemical. Here is the method: A549 cells were plated at 250 cells/well into wells of a 384-well assay plate. 50 μM PBI-4600 pro-substrate and 40 ng/ml NANOLUC luciferase protein sensor were added to the cell culture and incubated for 72 hours. After incubation, 40 ng/ml NANOLUC luciferase protein sensor was added to the cell culture, and the signal was monitored 1.5 hours later.

As for `CC1=C(C)C(=O)C(C(C)(C)CC(=O)N(C)CCN(C)C(=O)Oc2c(Cc3ccco3)nc3c(Cc4ccccc4)nc(-c4ccccc4)cn23)=C(C)C1=O` [PBI-4600], the “purity of PBI-4600 (HPLC) after incubation” value in series [1] was “greater than 90%”. With `C[C@@H]1CC[C@@]2(OC1)O[C@H]1[C@@H](O)[C@H]3[C@@H]4CC[C@H]5C[C@@H](O[C@@H]6O[C@H](CO)[C@H](O[C@@H]7O[C@H](CO)[C@@H](O)[C@H](O[C@@H]8OC[C@@H](O)[C@H](O)[C@H]8O)[C@H]7O[C@@H]7O[C@H](CO)[C@H](O)[C@H](O[C@@H]8O[C@H](CO)[C@@H](O)[C@H](O)[C@H]8O)[C@H]7O)[C@H](O)[C@H]6O)[C@H](O)C[C@]5(C)[C@H]4CC[C@]3(C)[C@H]1[C@@H]2C` [digitonin], the “change in luminescence signal (cell viability) after addition” value in the series on Cardiomyocyte cells was “rapid decrease in signal”. For `CC1=CC(=O)c2ccccc2C1=O` [menadione, Menadione], the “time at which maximum luminescence signal was reached after addition” value in series [2] was 5 h. On to `CN[C@@H]1C[C@H]2O[C@@](C)([C@@H]1OC)n1c3ccccc3c3c4c(c5c6ccccc6n2c5c31)C(=O)NC4` [staurosporine], for which the “change in luminescence (caspase activation) during treatment” value in series [3] is on record as “increase in luminescence”. As to Triton X-100, the “change in luminescence signal (cell viability) after addition” value with A549 cells is on record as “rapid decrease in signal”.

B1: NANOLUC luciferase: modified, enhanced luciferase enzyme from Oplophorus, Promega Corporation, SEQ ID NO: 1 (protein)
chain: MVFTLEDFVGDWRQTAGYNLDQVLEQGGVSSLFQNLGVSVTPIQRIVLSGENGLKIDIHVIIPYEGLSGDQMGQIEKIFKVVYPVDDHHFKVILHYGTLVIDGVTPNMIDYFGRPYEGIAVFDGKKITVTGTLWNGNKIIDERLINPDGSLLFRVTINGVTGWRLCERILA
With B1, in series [4], the “time stable in cell culture conditions” value is listed as “at least 72 h”.
